In patent US20160271155A1, “Vitamin Formulations” (NESTEC S.A., priority 2013, published 2016):

Columns and labels:
[1] = Concentration of B9 in water and solution appearance at B9:stevioside ratios (HPLC); conditions: for Solution Appearance: 15 mg/mL B9 in water
Method: Vitamin B9 (5-methyl folate, MW 459.46) was formulated using stevioside to form a complex.
All water solutions were prepared to contain 15 mg/mL B9 and filtered before HPLC analysis.

[2] = Absorption assessment in a rat model (oral pharmacokinetics); format: in vivo, Sprague Dawley rat; conditions: rats, oral gavage
Source text: Each group (formulation) had 8 rats (n=8).
Vertical bars represent one standard error of the means (n=8).
The table contains various pharmacokinetic parameters in rats orally administered with various methylfolate Ca (B9) formulations. Shown as Average±SD (% over the 1:0 control formulation).

[3] = Particle size of B9:stevioside solutions; format: physicochemical; conditions: Homogenization for 5 min and heat at 80° for 5 min; no unit in table (b98 speaks of nm)
Source text: In certain instances, the stevioside: B9 complex comprises a nanoparticle, or a nanomicelle, with a characteristic size distribution of approximately 2 nm to about 4 nanometers. This size, along with their physical and chemical properties, is believed to be important regarding their bioavailability enhancement properties. Nanoparticle size distribution can be measured using Dynamic Light Scattering (DLS).

Caco-2 cell monolayer = test: Absorption assessment in Caco-2 cell monolayer; format: in vitro ADME
Source text: The Caco-2 cell monolayer model is the standard for predicting human oral absorption. The test samples included: B9:stevioside at 1:0; 1:4; 1:10 and 1:20.
Table 4 tabulates the permeability of methylfolate calcium (B9) in Caco-2 monolayer cell culture.

[4] = dose equivalent to 19 mg/70 kg person, n=8, Average±SD

Compound: CN1c2c(nc(N)[nH]c2=O)NCC1CNc1ccc(C(=O)N[C@@H](CCC(=O)[O-])C(=O)O)cc1.CN1c2c(nc(N)[nH]c2=O)NCC1CNc1ccc(C(=O)N[C@@H](CCC(=O)[O-])C(=O)O)cc1.[Ca+2] (stereo partly drawn) [B9:ST 1:0]
- Solution Appearance ([1]; Homogenization for 5 min and heat at 80° for 5 min): Suspension
- Concentration (mg/mL in water) ([1]; Homogenization for 5 min and heat at 80° for 5 min, prepared to contain 15 mg/mL B9, filtered before HPLC): 9.2 mg/mL
- Solution Appearance ([1]; No homogenization or heat): Suspension
- AUC0-∞, % over the 1:0 control formulation ([2]; 19 mg/70 kg person equivalent): (100) %
- AUC^0-12, % over the 1:0 control formulation ([2]; 19 mg/70 kg person equivalent): (100) %
- CL, % over the 1:0 control formulation ([2]; 19 mg/70 kg person equivalent): (100) %
- Cmax, % over the 1:0 control formulation ([2]; 19 mg/70 kg person equivalent): (100) %
- MRT0-∞, % over the 1:0 control formulation ([2]; 19 mg/70 kg person equivalent): (100) %
- T1/2, % over the 1:0 control formulation ([2]; 19 mg/70 kg person equivalent): (100) %
- Tmax, % over the 1:0 control formulation ([2]; 19 mg/70 kg person equivalent): (100) %
- Vss, % over the 1:0 control formulation ([2]; 19 mg/70 kg person equivalent): (100) %
- CL [2, 4]: 0.69 ± 0.06 mL/h kg^−1
- Cmax [2, 4]: 0.63 ± 0.04955 µg/mL
- MRT0-∞ [2, 4]: 12.41 ± 2.40 h
- T1/2 [2, 4]: 8.60 ± 1.92 h
- Tmax [2, 4]: 1.59 ± 0.36 h
- Vss [2, 4]: 0.0077 ± 0.00095 L/kg
- Particle Size MN [3]: 1,865
- Particle Size MV [3]: 1,917
- permeability in Caco-2 cell monolayer assay (Caco-2 cell monolayer; Caco-2 monolayer): permeable
- Permeation enhancement (over 1:0) (Caco-2 cell monolayer; Caco-2 monolayer, 76 μg/mL B9, 2 hr): 1.00
- Papp (A-B) (Caco-2 cell monolayer; Caco-2 monolayer, 76 μg/mL B9, assay duration 2 hr): 5.89 ± 0.245 10^−6 · cm· s^−1
- predicted oral absorption (Caco-2 cell monolayer; predicted from the Caco-2 value): 70-80%
- Caco-2 value (rounded) (Caco-2 cell monolayer; text summary of Table 4, unit not given): 6
